# Reference: patent US20230295200A1 (REGENTS OF THE UNIVERSITY OF MICHIGAN, priority 2022, published 2023)
# Key:
# STAT6 protein = biological target: T1, STAT6 protein (Homo sapiens, UniProt P42226); assay: Fluorescence polarization (FP) binding assay, STAT6; settings: FP competition, 5 nM fluorescein-labeled tracer, 200 nM protein, PBS pH7.4; read-out: Binding STAT6
# T1 sequence (P42226 1-847): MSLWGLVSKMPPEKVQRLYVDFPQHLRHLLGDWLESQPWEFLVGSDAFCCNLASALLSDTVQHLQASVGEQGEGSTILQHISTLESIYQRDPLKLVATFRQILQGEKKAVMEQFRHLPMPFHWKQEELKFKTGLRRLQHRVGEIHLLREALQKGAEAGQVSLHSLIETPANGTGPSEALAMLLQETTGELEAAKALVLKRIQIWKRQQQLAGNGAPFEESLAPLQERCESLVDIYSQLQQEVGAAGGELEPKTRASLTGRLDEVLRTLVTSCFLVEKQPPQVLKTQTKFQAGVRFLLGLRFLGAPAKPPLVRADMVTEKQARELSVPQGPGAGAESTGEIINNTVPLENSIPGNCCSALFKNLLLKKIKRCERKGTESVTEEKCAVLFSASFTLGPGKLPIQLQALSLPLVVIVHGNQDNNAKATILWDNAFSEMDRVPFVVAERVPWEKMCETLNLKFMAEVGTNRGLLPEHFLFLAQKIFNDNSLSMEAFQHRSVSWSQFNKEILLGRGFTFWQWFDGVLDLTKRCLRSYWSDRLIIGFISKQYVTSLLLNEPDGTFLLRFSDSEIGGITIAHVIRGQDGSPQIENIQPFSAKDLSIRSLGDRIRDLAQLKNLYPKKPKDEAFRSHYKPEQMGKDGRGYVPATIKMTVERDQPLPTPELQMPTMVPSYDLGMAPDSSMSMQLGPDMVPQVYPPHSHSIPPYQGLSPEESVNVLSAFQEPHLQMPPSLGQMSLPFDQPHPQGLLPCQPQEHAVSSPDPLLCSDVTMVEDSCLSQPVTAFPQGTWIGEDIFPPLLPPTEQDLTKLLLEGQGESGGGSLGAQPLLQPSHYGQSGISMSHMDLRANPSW
# How it was run: (§1)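 Competitive FP read-out with 5 nM fluorescein-labeled tracer and 200 nM STAT5 or STAT6 protein in PBS pH 7.4 containing 0.01% BGG, 0.01% Tween-20 and 2 mM DTT. Plates were shaken 15 min, then equilibrated 1 h at room temperature; inhibition constants came from nonlinear curve fitting.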
# STAT5A = biological target: T2, STAT5A (Homo sapiens, UniProt P42229); assay: Fluorescence polarization (FP) binding assay, STAT5A; settings: FP competition, 5 nM fluorescein-labeled tracer, 200 nM protein, PBS pH7.4
# T2 sequence (P42229 1-794): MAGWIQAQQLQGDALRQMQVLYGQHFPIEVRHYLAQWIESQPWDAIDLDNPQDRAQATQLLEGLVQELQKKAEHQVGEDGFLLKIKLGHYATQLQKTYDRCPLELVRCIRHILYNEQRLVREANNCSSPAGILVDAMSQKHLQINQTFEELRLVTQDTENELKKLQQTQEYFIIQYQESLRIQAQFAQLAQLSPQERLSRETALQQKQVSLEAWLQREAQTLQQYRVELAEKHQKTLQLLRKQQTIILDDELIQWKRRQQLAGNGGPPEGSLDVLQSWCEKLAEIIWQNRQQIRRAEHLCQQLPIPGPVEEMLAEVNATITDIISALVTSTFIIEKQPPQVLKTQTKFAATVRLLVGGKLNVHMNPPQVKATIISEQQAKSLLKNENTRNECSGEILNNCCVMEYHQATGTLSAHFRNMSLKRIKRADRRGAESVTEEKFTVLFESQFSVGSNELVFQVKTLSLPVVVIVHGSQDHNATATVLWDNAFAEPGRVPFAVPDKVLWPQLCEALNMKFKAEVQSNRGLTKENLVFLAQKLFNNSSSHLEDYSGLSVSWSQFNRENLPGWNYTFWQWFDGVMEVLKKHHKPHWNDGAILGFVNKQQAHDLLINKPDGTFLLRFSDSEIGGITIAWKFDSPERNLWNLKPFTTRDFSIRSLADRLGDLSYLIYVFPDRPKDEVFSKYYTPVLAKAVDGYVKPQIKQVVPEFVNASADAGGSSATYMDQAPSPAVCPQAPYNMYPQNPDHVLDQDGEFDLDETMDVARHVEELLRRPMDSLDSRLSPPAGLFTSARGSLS
# How it was run: as §1
SMILES,Ki (STAT6 protein) [µM],Ki (STAT5A) [µM]
"CC(C)(C)[C@H](NC(=O)c1cc2cc(C(F)(F)P(=O)(O)O)ccc2s1)C(=O)N1CCC[C@H]1C(=O)N(c1ccccc1)c1ccc(I)cc1 [Compound 39, (difluoro(2-(((S)-1-((S)-2-((4-iodophenyl)(phenyl)carbamoyl)pyrrolidin-1-yl)-3,3-dimethyl-1-oxobutan-2-yl)carbamoyl)benzo[b]thiophen-5-yl)methyl)phosphonic acid]",0.1 to 1,1 to 10
"CC(C)(C)[C@H](NC(=O)c1cc2cc(C(F)(F)P(=O)(O)O)ccc2[nH]1)C(=O)N1CCC[C@H]1C(=O)N(c1ccc(Cl)cc1)C1CCCCC1 [Compound 40, ((2-(((S)-1-((S)-2-((4-chlorophenyl)(cyclohexyl)carbamoyl)pyrrolidin-1-yl)-3,3-dimethyl-1-oxobutan-2-yl)carbamoyl)-1H-indol-5-yl)difluoromethyl)phosphonic acid]",0.1 to 1,1 to 10
"CNC(=O)c1ccc(N(C(=O)[C@@H]2CCCN2C(=O)[C@@H](NC(=O)c2cc3cc(C(F)(F)P(=O)(O)O)ccc3s2)C(C)(C)C)c2ccc(I)cc2)cc1 [Compound 42, (difluoro(2-(((S)-1-((S)-2-((4-iodophenyl)(4-(methylcarbamoyl)phenyl)carbamoyl)pyrrolidin-1-yl)-3,3-dimethyl-1-oxobutan-2-yl)carbamoyl)benzo[b]thiophen-5-yl)methyl)phosphonic acid]",0.1 to 1,1 to 10
COC(=O)CCN(C(=O)[C@@H]1CCCN1C(=O)[C@@H](NC(=O)c1cc2cc(C(F)(F)P(=O)(O)O)ccc2s1)C(C)(C)C)c1ccc(Br)cc1 [Compound 43],0.1 to 1,0.1 to 1
"CNC(=O)c1ccc(N(C(=O)[C@@H]2CCCN2C(=O)[C@@H](NC(=O)c2cc3cc(C(F)(F)P(=O)(O)O)ccc3s2)C(C)(C)C)c2ccc(Cl)cc2)cc1 [Compound 44, ((2-(((S)-1-((S)-2-((4-chlorophenyl)(4-(methylcarbamoyl)phenyl)carbamoyl)pyrrolidin-1-yl)-3,3-dimethyl-1-oxobutan-2-yl)carbamoyl)benzo[b]thiophen-5-yl)difluoromethyl)phosphonic acid]",0.1 to 1,1 to 10
"CNC(=O)CCN(C(=O)[C@@H]1CCCN1C(=O)[C@@H](NC(=O)c1cc2cc(C(F)(F)P(=O)(O)O)ccc2s1)C(C)(C)C)c1ccc(Br)cc1 [Compound 45, ((2-(((S)-1-((S)-2-((4-bromophenyl)(3-(methylamino)-3-oxopropyl)carbamoyl)pyrrolidin-1-yl)-3,3-dimethyl-1-oxobutan-2-yl)carbamoyl)benzo[b]thiophen-5-yl)difluoromethyl)phosphonic acid]",0.1 to 1,1 to 10
"CC(C)(C)[C@H](NC(=O)c1cc2cc(C(F)(F)P(=O)(O)O)ccc2s1)C(=O)N1CCC[C@H]1C(=O)N(CCC(=O)O)c1ccc(Br)cc1 [Compound 46, 3-((S)-N-(4-bromophenyl)-1-((S)-2-(5-(difluoro(phosphono)methyl)benzo[b]thiophene-2-carboxamido)-3,3-dimethylbutanoyl)pyrrolidine-2-carboxamido)propanoic acid]",0.1 to 1,0.1 to 1
"CC(C)(C)[C@H](NC(=O)c1cc2cc(C(F)(F)P(=O)(O)O)ccc2s1)C(=O)N1CCC[C@H]1C(=O)N1CCCC12CCCC2 [Compound 58, ((2-(((S)-1-((S)-2-(1-azaspiro[4.4]nonane-1-carbonyl)pyrrolidin-1-yl)-3,3-dimethyl-1-oxobutan-2-yl)carbamoyl)benzo[b]thiophen-5-yl)difluoromethyl)phosphonic acid]",1 to 10,> 10
"CC(C)(C)[C@H](NC(=O)c1cc2cc(C(F)(F)P(=O)(O)O)ccc2s1)C(=O)N1CCC[C@H]1C(=O)N1CCC2(CCCC2)C1 [Compound 59, ((2-(((S)-1-((S)-2-(2-azaspiro[4.4]nonane-2-carbonyl)pyrrolidin-1-yl)-3,3-dimethyl-1-oxobutan-2-yl)carbamoyl)benzo[b]thiophen-5-yl)difluoromethyl)phosphonic acid]",1 to 10,> 10
"CC(C)(C)[C@H](NC(=O)c1cc2cc(C(F)(F)P(=O)(O)O)ccc2s1)C(=O)N1CCC[C@H]1C(=O)N1CCCC12CCCCC2 [Compound 60, ((2-(((S)-1-((S)-2-(1-azaspiro[4.5]decane-1-carbonyl)pyrrolidin-1-yl)-3,3-dimethyl-1-oxobutan-2-yl)carbamoyl)benzo[b]thiophen-5-yl)difluoromethyl)phosphonic acid]",1 to 10,> 10
"CC(C)(C)[C@H](NC(=O)c1cc2cc(C(F)(F)P(=O)(O)O)ccc2s1)C(=O)N1CCC[C@H]1C(=O)N1CCC2(CCCCC2)C1 [Compound 61, ((2-(((S)-1-((S)-2-(2-azaspiro[4.5]decane-2-carbonyl)pyrrolidin-1-yl)-3,3-dimethyl-1-oxobutan-2-yl)carbamoyl)benzo[b]thiophen-5-yl)difluoromethyl)phosphonic acid]",1 to 10,> 10
"CC(C)(C)[C@H](NC(=O)c1cc2cc(C(F)(F)P(=O)(O)O)ccc2s1)C(=O)N1CCC[C@H]1C(=O)N1CCC2(CCCCCC2)C1 [Compound 62, ((2-(((S)-1-((S)-2-(2-azaspiro[4.6]undecane-2-carbonyl)pyrrolidin-1-yl)-3,3-dimethyl-1-oxobutan-2-yl)carbamoyl)benzo[b]thiophen-5-yl)difluoromethyl)phosphonic acid]",1 to 10,> 10
"CC(C)(C)[C@H](NC(=O)c1cc2cc(C(F)(F)P(=O)(O)O)ccc2s1)C(=O)N1CCC[C@H]1C(=O)N1CCc2ccc(Cl)cc2C1 [Compound 68, ((2-(((S)-1-((S)-2-(7-chloro-1,2,3,4-tetrahydroisoquinoline-2-carbonyl)pyrrolidin-1-yl)-3,3-dimethyl-1-oxobutan-2-yl)carbamoyl)benzo[b]thiophen-5-yl)difluoromethyl)phosphonic acid]",1 to 10,> 10
"CC(C)(C)[C@H](NC(=O)c1cc2cc(C(F)(F)P(=O)(O)O)ccc2s1)C(=O)N1CCC[C@H]1C(=O)NC1(c2ccccc2)CC1 [Compound 71, ((2-(((S)-3,3-dimethyl-1-oxo-1-((S)-2-((1-phenylcyclopropyl)carbamoyl)pyrrolidin-1-yl)butan-2-yl)carbamoyl)benzo[b]thiophen-5-yl)difluoromethyl)phosphonic acid]",1 to 10,> 10
"CN(Cc1ccc(Cl)cc1)C(=O)[C@@H]1CCCN1C(=O)[C@@H](NC(=O)c1cc2cc(C(F)(F)P(=O)(O)O)ccc2s1)C(C)(C)C [Compound 73, ((2-(((S)-1-((S)-2-((4-chlorobenzyl)(methyl)carbamoyl)pyrrolidin-1-yl)-3,3-dimethyl-1-oxobutan-2-yl)carbamoyl)benzo[b]thiophen-5-yl)difluoromethyl)phosphonic acid]",1 to 10,> 10
"CN(Cc1ccc(Br)cc1)C(=O)[C@@H]1CCCN1C(=O)[C@@H](NC(=O)c1cc2cc(C(F)(F)P(=O)(O)O)ccc2s1)C(C)(C)C [Compound 74, ((2-(((S)-1-((S)-2-((4-bromobenzyl)(methyl)carbamoyl)pyrrolidin-1-yl)-3,3-dimethyl-1-oxobutan-2-yl)carbamoyl)benzo[b]thiophen-5-yl)difluoromethyl)phosphonic acid]",1 to 10,> 10
